Molecular target: T1, Cbl-b (Homo sapiens, UniProt Q13191)
T1 construct: Cbl-b-HiBit KI Jurkat Cells were purchased from Promega; host or cells: Cbl-b-HiBiT knock-in Jurkat cells
Experiment: Cbl-b Degradation Method B (Nano-Glo HiBiT lytic detection)
Assay type: cell-based
Settings: Cbl-b-HiBit KI Jurkat Cells, incubated at least 6-24 hours; for DC50: half maximal degradation, read-out: Cbl-b Degredation Method B IC50; for Dmax: maximum degradation observed, read-out: Cbl-b Degredation Method B Dmax (%)
In short: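 An 11-point, 3-fold compound dilution was applied for 6-24 hours to Jurkat cells carrying HiBiT-tagged endogenous Cbl-b. Lytic HiBiT luminescence quantified residual protein. Outputs are DC50 and Dmax relative to DMSO control.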

T1 sequence (Q13191 whole entry): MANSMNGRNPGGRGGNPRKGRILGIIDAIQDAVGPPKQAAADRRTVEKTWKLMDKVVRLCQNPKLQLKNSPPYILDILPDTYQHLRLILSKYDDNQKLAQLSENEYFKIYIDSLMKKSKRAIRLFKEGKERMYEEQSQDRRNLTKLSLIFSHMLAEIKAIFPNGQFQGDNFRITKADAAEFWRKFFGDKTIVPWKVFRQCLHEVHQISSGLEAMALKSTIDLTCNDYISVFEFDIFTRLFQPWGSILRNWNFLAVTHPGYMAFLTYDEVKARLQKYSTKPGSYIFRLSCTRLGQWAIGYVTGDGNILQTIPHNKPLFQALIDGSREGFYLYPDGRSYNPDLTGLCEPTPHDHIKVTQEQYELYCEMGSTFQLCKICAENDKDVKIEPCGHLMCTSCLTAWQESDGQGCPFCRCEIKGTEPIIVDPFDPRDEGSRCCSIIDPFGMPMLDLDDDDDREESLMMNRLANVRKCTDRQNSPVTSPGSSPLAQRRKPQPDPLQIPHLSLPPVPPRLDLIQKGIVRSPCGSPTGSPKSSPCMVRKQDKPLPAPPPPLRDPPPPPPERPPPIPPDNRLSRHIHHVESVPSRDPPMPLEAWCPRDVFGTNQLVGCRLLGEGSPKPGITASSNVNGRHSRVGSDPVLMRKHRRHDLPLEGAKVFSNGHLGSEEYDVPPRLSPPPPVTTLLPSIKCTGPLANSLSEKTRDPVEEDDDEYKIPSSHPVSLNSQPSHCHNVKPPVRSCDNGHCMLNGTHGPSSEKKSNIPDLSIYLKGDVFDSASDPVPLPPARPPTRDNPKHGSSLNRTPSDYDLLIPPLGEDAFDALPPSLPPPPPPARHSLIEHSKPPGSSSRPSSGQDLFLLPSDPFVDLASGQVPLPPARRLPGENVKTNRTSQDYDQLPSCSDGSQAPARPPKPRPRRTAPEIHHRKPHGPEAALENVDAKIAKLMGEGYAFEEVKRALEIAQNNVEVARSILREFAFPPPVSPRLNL

| SMILES | DC50 | Dmax |
| --- | --- | --- |
| CC(C)n1c(=O)n(C2CCC(=O)NC2=O)c2ccc(N3CCC(O[C@H]4CC[C@@H](CN5CCN(C[C@H]6CCCN(Cc7cc(C(F)(F)F)c8cn(-c9cccc(C%10(Cc%11nncn%11C)COC%10)c9)nc8c7)C6)C(C)(C)C5)CC4)CC3)cc21 (stereo partly drawn) [Example 266, 3-[2-oxo-3-(propan-2-yl)-5-(4-{[(1r,4r)-4-[(3,3-dimethyl-4-{[(3S)-1-{[2-(3-{3-[(4-methyl-4H-1,2,4-triazol-3-yl)methyl]oxetan-3-yl}phenyl)-4-(trifluoromethyl)-2H-indazol-6-yl]methyl}piperidin-3-yl]methyl}piperazin-1-yl)methyl]cyclohexyl]oxy}piperidin-1-yl)-2,3-dihydro-1H-1,3-benzodiazol-1-yl]piperidine-2,6-dione] | < 5 nM | > 70% |
| Cn1cnnc1CC1(c2cccc(-n3cc4c(C(F)(F)F)cc(CN5CCC[C@H](CN6CCN(C[C@H]7CC[C@@H](OC8CCN(c9ccc%10c(c9F)CN(C9CCC(=O)NC9=O)C%10=O)CC8)CC7)CC6(C)C)C5)cc4n3)c2)COC1 (stereo partly drawn) [Example 267, 3-[4-fluoro-1-oxo-5-(4-{[(1r,4r)-4-[(3,3-dimethyl-4-{[(3S)-1-{[2-(3-{3-[(4-methyl-4H-1,2,4-triazol-3-yl)methyl]oxetan-3-yl}phenyl)-4-(trifluoromethyl)-2H-indazol-6-yl]methyl}piperidin-3-yl]methyl}piperazin-1-yl)methyl]cyclohexyl]oxy}piperidin-1-yl)-2,3-dihydro-1H-isoindol-2-yl]piperidine-2,6-dione] | < 5 nM | > 70% |
| CC(C)n1c(=O)n(C2CCC(=O)NC2=O)c2ccc(N3CCC(O[C@H]4CC[C@@H](CN5CCN(C[C@H]6CCCN(Cc7cc(C(F)(F)F)c8cn(-c9cccc(C%10(Cc%11nncn%11C)COC%10)c9)nc8c7)C6)CC5)CC4)CC3)cc21 (stereo partly drawn) [Example 268, 3-[2-oxo-3-(propan-2-yl)-5-(4-{[(1r,4r)-4-[(4-{[(3S)-1-{[2-(3-{3-[(4-methyl-4H-1,2,4-triazol-3-yl)methyl]oxetan-3-yl}phenyl)-4-(trifluoromethyl)-2H-indazol-6-yl]methyl}piperidin-3-yl]methyl}piperazin-1-yl)methyl]cyclohexyl]oxy}piperidin-1-yl)-2,3-dihydro-1H-1,3-benzodiazol-1-yl]piperidine-2,6-dione] | < 5 nM | > 70% |
| Cc1cc(N2CCC(O[C@H]3CC[C@@H](CN4CCN(C[C@H]5CCCN(Cc6cc7c(c(C(F)(F)F)c6)CN(c6cccc(C8(Cc9nncn9C)COC8)c6)C7=O)C5)C(C)(C)C4)CC3)CC2)c(F)c2c1C(=O)N(C1CCC(=O)NC1=O)C2 (stereo partly drawn) [Example 269, 3-[4-fluoro-7-methyl-1-oxo-5-(4-{[(1r,4r)-4-[(3,3-dimethyl-4-{[(3S)-1-{[2-(3-{3-[(4-methyl-4H-1,2,4-triazol-3-yl)methyl]oxetan-3-yl}phenyl)-3-oxo-7-(trifluoromethyl)-2,3-dihydro-1H-isoindol-5-yl]methyl}piperidin-3-yl]methyl}piperazin-1-yl)methyl]cyclohexyl]oxy}piperidin-1-yl)-2,3-dihydro-1H-isoindol-2-yl]piperidine-2,6-dione] | < 5 nM | > 70% |
| Cn1cnnc1CC1(c2cccc(N3Cc4c(cc(CN5CCC[C@H](CN6CCN(C[C@H]7CC[C@@H](OC8CCN(c9ccc%10c(c9F)CN(C9CCC(=O)NC9=O)C%10=O)CC8)CC7)CC6(C)C)C5)cc4C(F)(F)F)C3=O)c2)CCC1 (stereo partly drawn) [Example 270, 3-[4-fluoro-1-oxo-5-(4-{[(1r,4r)-4-[(3,3-dimethyl-4-{[(3S)-1-{[2-(3-{1-[(4-methyl-4H-1,2,4-triazol-3-yl)methyl]cyclobutyl}phenyl)-3-oxo-7-(trifluoromethyl)-2,3-dihydro-1H-isoindol-5-yl]methyl}piperidin-3-yl]methyl}piperazin-1-yl)methyl]cyclohexyl]oxy}piperidin-1-yl)-2,3-dihydro-1H-isoindol-2-yl]piperidine-2,6-dione] | < 5 nM | > 70% |
| Cc1cc(N2C[C@@H]3C[C@H]2CN3CC2CCC3(CC2)CN(c2cc4c(c(C(F)(F)F)c2)CN(c2cccc([C@]5(Cc6nncn6C)C[C@@H](C#N)C5)c2)C4=O)C3)c(F)c2c1C(=O)N(C1CCC(=O)NC1=O)C2 (stereo partly drawn) [Example 271, (1r,3r)-3-{3-[6-(7-{[(1S,4S)-5-[2-(2,6-dioxopiperidin-3-yl)-4-fluoro-7-methyl-1-oxo-2,3-dihydro-1H-isoindol-5-yl]-2,5-diazabicyclo[2.2.1]heptan-2-yl]methyl}-2-azaspiro[3.5]nonan-2-yl)-1-oxo-4-(trifluoromethyl)-2,3-dihydro-1H-isoindol-2-yl]phenyl}-3-[(4-methyl-4H-1,2,4-triazol-3-yl)methyl]cyclobutane-1-carbonitrile] | 5 to 50 nM | 35 to 70% |
| Cc1cc(C2CCN(CC3CCC4(CC3)CN(c3cc5c(c(C(F)(F)F)c3)CN(c3cccc([C@]6(Cc7nncn7C)C[C@@H](C#N)C6)c3)C5=O)C4)CC2)c(F)c2c1C(=O)N(C1CCC(=O)NC1=O)C2 (stereo partly shown) [Example 272, (1r,3r)-3-(3-{6-[7-({4-[2-(2,6-dioxopiperidin-3-yl)-4-fluoro-7-methyl-1-oxo-2,3-dihydro-1H-isoindol-5-yl]piperidin-1-yl}methyl)-2-azaspiro[3.5]nonan-2-yl]-1-oxo-4-(trifluoromethyl)-2,3-dihydro-1H-isoindol-2-yl}phenyl)-3-[(4-methyl-4H-1,2,4-triazol-3-yl)methyl]cyclobutane-1-carbonitrile] | 5 to 50 nM | 35 to 70% |
| CC(C)n1c(=O)n(C2CCC(=O)NC2=O)c2ccc(N3CCC(CN4CCN(C[C@H]5CCCN(Cc6cc7c(c(C(F)(F)F)c6)CN(c6cccc(C8(Cc9nncn9C)CC(C#N)C8)c6)C7=O)C5)C(C)(C)C4)CC3)cc21 (stereo partly drawn) [Example 273, (1r*,3r*)-3-[3-(6-{[(3S)-3-{[4-({1-[1-(2,6-dioxopiperidin-3-yl)-2-oxo-3-(propan-2-yl)-2,3-dihydro-1H-1,3-benzodiazol-5-yl]piperidin-4-yl}methyl)-2,2-dimethylpiperazin-1-yl]methyl}piperidin-1-yl]methyl}-1-oxo-4-(trifluoromethyl)-2,3-dihydro-1H-isoindol-2-yl)phenyl]-3-[(4-methyl-4H-1,2,4-triazol-3-yl)methyl]cyclobutane-1-carbonitrile] | < 5 nM | – |
| Cn1cnnc1C[C@]1(c2cccc(N3Cc4c(cc(CN5CCN(C[C@H]6CC[C@H](OC7CCN(c8cccc9c8n(C)c(=O)n9C8CCC(=O)NC8=O)CC7)CC6)CC5(C)C)cc4C(F)(F)F)C3=O)c2)C[C@H](C#N)C1 (stereo partly shown) [Example 274, (1r,3r)-3-(3-{6-[(2,2-dimethyl-4-{[(1r,4r)-4-({1-[1-(2,6-dioxopiperidin-3-yl)-3-methyl-2-oxo-2,3-dihydro-1H-1,3-benzodiazol-4-yl]piperidin-4-yl}oxy)cyclohexyl]methyl}piperazin-1-yl)methyl]-1-oxo-4-(trifluoromethyl)-2,3-dihydro-1H-isoindol-2-yl}phenyl)-3-[(4-methyl-4H-1,2,4-triazol-3-yl)methyl]cyclobutane-1-carbonitrile] | < 5 nM | > 70% |
| CC(C)n1c(=O)n(C2CCC(=O)NC2=O)c2cccc(N3CCC(O[C@H]4CC[C@H](CN5CCN(Cc6cc7c(c(C(F)(F)F)c6)CN(c6cccc([C@]8(Cc9nncn9C)C[C@@H](C#N)C8)c6)C7=O)C(C)(C)C5)CC4)CC3)c21 (stereo partly shown) [Example 275, (1r,3r)-3-(3-{6-[(2,2-dimethyl-4-{[(1r,4r)-4-({1-[1-(2,6-dioxopiperidin-3-yl)-2-oxo-3-(propan-2-yl)-2,3-dihydro-1H-1,3-benzodiazol-4-yl]piperidin-4-yl}oxy)cyclohexyl]methyl}piperazin-1-yl)methyl]-1-oxo-4-(trifluoromethyl)-2,3-dihydro-1H-isoindol-2-yl}phenyl)-3-[(4-methyl-4H-1,2,4-triazol-3-yl)methyl]cyclobutane-1-carbonitrile] | 5 to 50 nM | 35 to 70% |
| CC1c2c(cc(CN3CCN(C[C@H]4CC[C@H](OC5CCN(c6ccc7c(c6F)CN(C6CCC(=O)NC6=O)C7=O)CC5)CC4)CC3(C)C)cc2C(F)(F)F)C(=O)N1c1cccc(C2(Cc3nncn3C)COC2)c1 (stereo partly shown) [Example 279, 3-[4-fluoro-1-oxo-5-(4-{[(1r, 4r)-4-[(3,3-dimethyl-4-{[1-methyl-2-(3-{3-[(4-methyl-4H-1,2,4-triazol-3-yl)methyl]oxetan-3-yl}phenyl)-3-oxo-7-(trifluoromethyl)-2,3-dihydro-1H-isoindol-5-yl]methyl}piperazin-1-yl)methyl]cyclohexyl]oxy}piperidin-1-yl)-2,3-dihydro-1H-isoindol-2-yl]piperidine-2,6-dione] | > 500 nM | – |
| CC1c2nc(N3CCC(O[C@H]4CC[C@H](CN5CCN(Cc6cc(C(F)(F)F)c7c(n6)C(=O)N(c6cccc(C8(Cc9nncn9C)COC8)c6)C7)CC5)CC4)CC3)ccc2C(=O)N1C1CCC(=O)NC1=O (stereo partly shown) [Example 282, 3-[7-methyl-2-[4-[4-[[4-[[6-[3-[3-[(4-methyl-1,2,4-triazol-3-yl)methyl]oxetan-3-yl]phenyl]-7-oxo-4-(trifluoromethyl)-5H-pyrrolo[3,4-b]pyridin-2-yl]methyl]piperazin-1-yl]methyl]cyclohexoxy]-1-piperidyl]-5-oxo-7Hpyrrolo[3,4-b]pyridin-6-yl]piperidine-2,6-dione] | > 500 nM | – |
| Cn1cnnc1CC1(c2cccc(-n3cc4c(C(F)(F)F)cc(CN5CCC[C@H](CN6CCN(CC7CCN(c8ccc9c(c8F)CN(C8CCC(=O)NC8=O)C9=O)CC7)CC6(C)C)C5)cc4n3)c2)COC1 (stereo partly drawn) [Example 285, 3-(5-{4-[(3,3-dimethyl-4-{[(3S)-1-{[2-(3-{3-[(4-methyl-4H-1,2,4-triazol-3-yl)methyl]oxetan-3-yl}phenyl)-4-(trifluoromethyl)-2H-indazol-6-yl]methyl}piperidin-3-yl]methyl}piperazin-1-yl)methyl]piperidin-1-yl}-4-fluoro-1-oxo-2,3-dihydro-1H-isoindol-2-yl)piperidine-2,6-dione] | > 500 nM | – |
